Measured values reported in patent publication EP3046573B1, “AMYLIN ANALOGUES” (Zealand Pharma A/S, priority 2013, dated 2015).
Numbered stars: 1 amine (or outer) side, 2 acyl side, 3 side chain; on linkers, the order of the positions; unused ones are H or OH. Bridge positions count the residues as written; N and C are the ends. Square brackets hold non-standard residues; d marks the D form. Peptide text beside a SMILES is read from it. * marks the point of attachment. C20 diacid = O=C(O)CCCCCCCCCCCCCCCCCCC(=O)*; γGlu = O=C(O)[C@H](CCC(=O)[*:2])N[*:1]; NMeI = CC[C@H](C)[C@H](NC)C(=O)O; Sar = CNCC(=O)O

Experiments:
[1] = Assessment of physical stability: fibril formation detected with Thioflavin T (ThT), lag-time; format: physicochemical; conditions: 1 mg/ml peptide, 40 µM ThT, FND = Fibrillation not detected; for Fibrillation lag time (hours) pH 4.0 (Ac): 50 mM acetate buffer pH 4.0, 96 hours at 40°C; for Fibrillation lag time (hours) pH 7.0 (Ph): 50 mM phosphate buffer pH 7.0, 96 hours at 40°C
Protocol: Solutions containing (i) 1 mg/ml of test peptide, 40 µM ThT and 50 mM phosphate (Ph) buffer (pH 7.0), (ii) 1 mg/ml of test peptide, 40 µM ThT and 50 mM histidine (His) buffer (pH 7.0), and (iii) 1 mg/ml of test peptide, 40 µM ThT and 50 mM acetate (Ac) buffer (pH 4.0), were loaded in a 96-well black fluorescence plate (clear bottom) in triplicate. Data were collected at fixed intervals of 10 min, each preceded by 300 s of automixing (agitation), over a period of 96 hours at 40° C. Physical stability, expressed as lag-time of fibril formation (in hours), was defined as the intersection between two linear regressions representing the initial stable phase and the growth phase.

[2] = Solubility assessment (turbidity absorbance at 325 nm); format: physicochemical; conditions: stock 2 mg/ml diluted 1:1, ambient temperature (typically 25°C), n=1; for Solubility, Acetate buffer pH 4: 100 mM acetate buffer pH 4.0; for Solubility, Acetate buffer pH 5: 100 mM acetate buffer pH 5.0; for Solubility, Histidine buffer pH 6: 100 mM histidine buffer pH 6.0; for Solubility, Histidine buffer pH 7: 100 mM histidine buffer pH 7.0; for Solubility, Phosphate buffer pH 6: 100 mM phosphate buffer pH 6.0; for Solubility, Phosphate buffer pH 7: 100 mM phosphate buffer pH 7.0; for Solubility, Phosphate buffer pH 7.5: 100 mM phosphate buffer pH7.5
Summary of the method: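 Peptide stock (2 mg/ml, water pH 2.5) diluted 1:1 into 100 mM acetate (pH 4.0, 5.0), histidine (pH 6.0, 7.0) or phosphate (pH 6.0–7.5) buffer; absorbance at 325 nm read at about 25°C, n=1. A325 ≤ 0.02 taken as solubility ≥ 1 mg/ml.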

[3] = molecular target: T1, human amylin receptor 3 (hAMYR3) consisting of hCTR2 co-expressed with human Receptor Activity Modifying Protein 3 (hRAMP3) (Homo sapiens, UniProt O60896+P30988); assay: hAMYR3 assay: induction of cAMP (AlphaScreen cAMP Assay kit) in COS7 cells expressing hAMYR3; format: cell-based; conditions: cAMP induction in COS7 cells expressing hAMYR3; average of a minimum of 3 determinations; read-out: hAMY R3 EC50
T1 construct: expressed in transfected cells
T1 sequence (P30988 25-474): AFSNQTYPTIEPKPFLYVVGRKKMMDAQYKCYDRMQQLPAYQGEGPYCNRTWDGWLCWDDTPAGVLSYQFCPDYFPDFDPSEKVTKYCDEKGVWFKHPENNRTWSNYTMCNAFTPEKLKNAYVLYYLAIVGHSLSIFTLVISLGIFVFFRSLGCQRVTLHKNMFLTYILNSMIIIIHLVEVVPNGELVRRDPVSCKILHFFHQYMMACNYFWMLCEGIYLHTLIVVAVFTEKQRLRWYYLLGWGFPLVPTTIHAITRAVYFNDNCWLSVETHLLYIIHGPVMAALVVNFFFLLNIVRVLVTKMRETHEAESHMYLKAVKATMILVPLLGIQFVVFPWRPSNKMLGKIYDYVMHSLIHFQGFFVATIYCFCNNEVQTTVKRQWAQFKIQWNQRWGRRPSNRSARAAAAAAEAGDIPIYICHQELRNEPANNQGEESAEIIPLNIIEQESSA
T1 sequence (O60896 24-148 partner): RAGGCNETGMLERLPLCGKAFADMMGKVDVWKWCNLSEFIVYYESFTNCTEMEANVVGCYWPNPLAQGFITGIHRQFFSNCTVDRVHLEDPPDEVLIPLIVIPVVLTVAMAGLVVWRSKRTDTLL
Summary of the method: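 Stable COS7 clone co-expressing hCTR2 and hRAMP3, stimulated 15 min at 37° C with increasing peptide in Tyrode buffer pH 7.4 with 100 µM IBMX and 0.1% casein. cAMP measured by AlphaScreen after lysis; EC50 and % efficacy versus pramlintide from 4PL fit.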

[4] = molecular target: T2, human calcitonin receptor (hCTR2) (Homo sapiens, UniProt P30988); assay: hCTR2 assay: induction of cAMP (AlphaScreen cAMP Assay kit) in COS7 cells expressing hCTR2; format: cell-based
T2 construct: expressed in transfected cells
T2 sequence (P30988 25-474): T1 sequence (P30988 25-474)
Summary of the method: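 COS7 stable hCTR2 clone (RAMP-free); peptide dose-response 15 min 37° C in Tyrode pH 7.4 + 100 µM IBMX + 0.1% casein; lysis 10 min RT; AlphaScreen cAMP; 4PL fit.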

CC[C@H](C)[C@@H](C(=O)N[C@@H](CC(C)C)C(=O)N[C@@H](CO)C(=O)N[C@@H](CO)C(=O)N[C@H](C(=O)N[C@@H](CC(N)=O)C(=O)N[C@H](C(=O)NCC(=O)N[C@@H](CO)C(=O)N[C@@H](CC(N)=O)C(=O)N[C@H](C(=O)N1CCC[C@H]1C(N)=O)[C@@H](C)O)C(C)C)[C@@H](C)O)N(C)C(=O)CN(C)C(=O)[C@H](Cc1ccccc1)NC(=O)[C@H](CC(N)=O)NC(=O)[C@H](CC(N)=O)NC(=O)[C@H](CO)NC(=O)[C@H](CO)NC(=O)[C@H](Cc1c[nH]cn1)NC(=O)[C@H](Cc1c[nH]cn1)NC(=O)[C@H](CC(C)C)NC(=O)[C@H](Cc1ccccc1)NC(=O)[C@H](CCC(=O)O)NC(=O)[C@H](C)NC(=O)[C@H](CC(C)C)NC(=O)[C@H](CCCNC(=N)N)NC(=O)[C@H](CCC(N)=O)NC(=O)[C@@H](NC(=O)[C@H](C)NC(=O)[C@@H]1CSSC[C@H](NC(=O)[C@H](CCCNC(=N)N)NC(=O)CC[C@H](NC(=O)CCCCCCCCCCCCCCCCCCC(=O)O)C(=O)O)C(=O)N[C@@H](CC(N)=O)C(=O)N[C@@H]([C@@H](C)O)C(=O)N[C@@H](C)C(=O)N[C@@H]([C@@H](C)O)C(=O)N1)[C@@H](C)O [Compound 2, [19CD]-isoGlu-RC()NTATC()ATQRLAEFLHHSSNNF-Gly(Me)-Ile(Me)-LSSTNVGSNTP-NH2] ({C20 diacid-γGlu}-RCNTATCATQRLAEFLHHSSNNF[Sar][NMeI]LSSTNVGSNTP-NH2; disulfide 2-7)
Fibrillation lag time (hours) pH 4.0 (Ac) [1]: FND^&& | Fibrillation lag time (hours) pH 7.0 (Ph) [1]: FND^&& | Solubility, Acetate buffer pH 4 [2]: SS (SS indicates solubility ≥ 1mg/ml) | Solubility, Acetate buffer pH 5 [2]: SS (SS indicates solubility ≥ 1mg/ml) | Solubility, Histidine buffer pH 6 [2]: SS (SS indicates solubility ≥ 1mg/ml) | Solubility, Histidine buffer pH 7 [2]: SS (SS indicates solubility ≥ 1mg/ml) | Solubility, Phosphate buffer pH 6 [2]: SS (SS indicates solubility ≥ 1mg/ml) | Solubility, Phosphate buffer pH 7 [2]: SS (SS indicates solubility ≥ 1mg/ml) | Solubility, Phosphate buffer pH 7.5 [2]: II (II indicates solubility ≤ 1 mg/ml) | EC50 [3]: 0.26 nM | EC50 [4]: 0.16 nM

CC[C@H](C)[C@@H](C(=O)N[C@@H](CC(C)C)C(=O)N[C@@H](CO)C(=O)N[C@@H](CO)C(=O)N[C@H](C(=O)N[C@@H](CC(N)=O)C(=O)N[C@H](C(=O)NCC(=O)N[C@@H](CO)C(=O)N[C@@H](Cc1c[nH]cn1)C(=O)N[C@H](C(=O)N[C@@H](Cc1ccc(O)cc1)C(N)=O)[C@@H](C)O)C(C)C)[C@@H](C)O)N(C)C(=O)[C@H](C)NC(=O)CN(C)C(=O)[C@H](Cc1ccccc1)NC(=O)[C@H](CC(N)=O)NC(=O)[C@H](CC(N)=O)NC(=O)[C@H](CO)NC(=O)[C@H](CO)NC(=O)[C@H](Cc1c[nH]cn1)NC(=O)[C@H](Cc1c[nH]cn1)NC(=O)[C@H](CC(C)C)NC(=O)[C@H](Cc1ccccc1)NC(=O)[C@H](CCC(=O)O)NC(=O)[C@H](C)NC(=O)[C@H](CC(C)C)NC(=O)[C@H](CCCNC(=N)N)NC(=O)[C@H](CCC(N)=O)NC(=O)[C@@H](NC(=O)[C@H](C)NC(=O)[C@@H]1CSSC[C@H](NC(=O)[C@H](CCCCN)NC(=O)CC[C@H](NC(=O)CCCCCCCCCCCCCCCCCCC(=O)O)C(=O)O)C(=O)N[C@@H](CC(N)=O)C(=O)N[C@@H]([C@@H](C)O)C(=O)N[C@@H](C)C(=O)N[C@@H]([C@@H](C)O)C(=O)N1)[C@@H](C)O [Compound 3, [19CD]-isoGlu-KC()NTATC()ATQRLAEFLHHSSNNF-Gly(Me)-A-Ile(Me)-LSSTNVGSHTY-NH2] ({C20 diacid-γGlu}-KCNTATCATQRLAEFLHHSSNNF[Sar]A[NMeI]LSSTNVGSHTY-NH2; disulfide 2-7)
Fibrillation lag time (hours) pH 4.0 (Ac) [1]: FND | Fibrillation lag time (hours) pH 7.0 (His) ([1]; 50 mM histidine buffer pH 7.0, 96 hours at 40°C): FND | Fibrillation lag time (hours) pH 7.0 (Ph) [1]: FND | Solubility, Acetate buffer pH 4 [2]: SS (SS indicates solubility ≥ 1mg/ml) | Solubility, Acetate buffer pH 5 [2]: SS (SS indicates solubility ≥ 1mg/ml) | Solubility, Histidine buffer pH 6 [2]: SS (SS indicates solubility ≥ 1mg/ml) | Solubility, Histidine buffer pH 7 [2]: II** (II indicates solubility ≤ 1 mg/ml) | Solubility, Phosphate buffer pH 6 [2]: SS (SS indicates solubility ≥ 1mg/ml) | Solubility, Phosphate buffer pH 7 [2]: II (II indicates solubility ≤ 1 mg/ml) | Solubility, Phosphate buffer pH 7.5 [2]: II (II indicates solubility ≤ 1 mg/ml) | EC50 [4]: 1.3 nM

CC[C@H](C)[C@H](NC(=O)[C@@H]1CCCN1C(=O)CNC(=O)[C@H](Cc1ccccc1)NC(=O)[C@H](CC(N)=O)NC(=O)[C@H](CC(N)=O)NC(=O)[C@H](CO)NC(=O)[C@H](CO)NC(=O)[C@H](Cc1c[nH]cn1)NC(=O)[C@@H](NC(=O)[C@H](CC(C)C)NC(=O)[C@H](Cc1ccccc1)NC(=O)[C@H](CC(N)=O)NC(=O)[C@H](C)NC(=O)[C@H](CC(C)C)NC(=O)[C@H](CCCNC(=N)N)NC(=O)[C@H](CCC(N)=O)NC(=O)[C@@H](NC(=O)[C@H](C)NC(=O)[C@@H]1CSSC[C@H](NC(=O)[C@@H](N)CCCCN)C(=O)N[C@@H](CC(N)=O)C(=O)N[C@@H]([C@@H](C)O)C(=O)N[C@@H](C)C(=O)N[C@@H]([C@@H](C)O)C(=O)N1)[C@@H](C)O)C(C)C)C(=O)N[C@@H](CC(C)C)C(=O)N1CCC[C@H]1C(=O)N1CCC[C@H]1C(=O)N[C@H](C(=O)N[C@@H](CC(N)=O)C(=O)N[C@H](C(=O)NCC(=O)N[C@@H](CO)C(=O)N[C@@H](CC(N)=O)C(=O)N[C@H](C(=O)N[C@@H](Cc1ccc(O)cc1)C(N)=O)[C@@H](C)O)C(C)C)[C@@H](C)O [pramlin tide]
Fibrillation lag time (hours) pH 4.0 (Ac) [1]: 48 hours | Fibrillation lag time (hours) pH 7.0 (Ph) [1]: 2 hours
